The record followed here is patent publication US20230123334A1, “AMINO LIPID COMPOUND, PREPARATION METHOD THEREFOR, AND APPLICATION THEREOF” (SHENZHEN SHENXIN BIOTECHNOLOGY CO., LTD., priority 2020, published 2023).

The test system of the assay is HEK293 cells. Put plainly: Preliminary screening as DNA vectors, GFP transfection of HEK293 cells. The settings on record: amino lipid/DOPE liposome with 75 ng plasmid DNA (psin-EGFP-IRES-Puro); number of GFP-expressing cells divided by total nuclei (Hoechst). Format: cell-based. In outline:
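First, amino lipid and DOPE were vortexed in sodium acetate buffer (pH 5.6) to form liposomes. Next, these were held with 75 ng EGFP plasmid at room temperature for 30 min. Finally, HEK293 cells were added, cultured at 37° C., Hoechst-stained, and GFP+/total nuclei scored by imaging.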

In the case of `CCCCCCCCCCCSc1nc(NCCN2CCOCC2)nc(SCCCCCCCC)n1` [S8S11 D2], the “Absolute DNA transfection efficiency in HEK293 cells” value (“Absolute DNA transfection efficiency” for short) was 17.9%.
As for `CCCCCCCCCCCSc1nc(NCCN2CCCC2)nc(SCCCCCCCC)n1` [S8S11 D3], the “Absolute DNA transfection efficiency” value came out at 6.1%.
As to `CCCCCCCCCCCSc1nc(NCCN2CCCCC2)nc(SCCCCCCCC)n1` [S8S11 D4], the “Absolute DNA transfection efficiency” value is listed as 8.5%.
Take `CCCCCCCCCCCSc1nc(NCCN2CCN(C)CC2)nc(SCCCCCCCC)n1` [S8S11 D5]: the “Absolute DNA transfection efficiency” value was 10.6%.
Consider `CCCCCCCCCCCSc1nc(NCCCN(C)C)nc(SCCCCCCCC)n1` [S8S11 D6], for which the “Absolute DNA transfection efficiency” value amounted to 7.9%.
The result for `CCCCCCCCCCCSc1nc(NCCN(CC)CC)nc(SCCCCCCCC)n1` [S8S11 D7] reads 10.3%.
With `CCCCCCCCCCCSc1nc(NCCCN2CCOCC2)nc(SCCCCCCCC)n1` [S8S11 D8], the “Absolute DNA transfection efficiency” value is 15.3%.
For the compound `CCCCCCCCCCCSc1nc(NCCCN2CCN(C)CC2)nc(SCCCCCCCC)n1` [S8S11 D9], the “Absolute DNA transfection efficiency” value came out at 12.8%.
Turning to `CCCCCCCCCCCSc1nc(NCC2CCN(C)CC2)nc(SCCCCCCCC)n1` [S8S11 D10], the “Absolute DNA transfection efficiency” value is 42.4%.
With `CCCCCCCCCCCCSc1nc(NCCN(C)C)nc(SCCCCCCCC)n1` [S8S12 D1], the “Absolute DNA transfection efficiency” value amounted to 10.7%.
Consider `CCCCCCCCCCCCSc1nc(NCCN2CCOCC2)nc(SCCCCCCCC)n1` [S8S12 D2], for which the “Absolute DNA transfection efficiency” value is on record as 16.1%.
The figure for `CCCCCCCCCCCCSc1nc(NCCN2CCCC2)nc(SCCCCCCCC)n1` [S8S12 D3] is 10.9%.
As to `CCCCCCCCCCCCSc1nc(NCCN2CCCCC2)nc(SCCCCCCCC)n1` [S8S12 D4], the “Absolute DNA transfection efficiency” value turned out to be 10.8%.
`CCCCCCCCCCCCSc1nc(NCCN2CCN(C)CC2)nc(SCCCCCCCC)n1` [S8S12 D5]: the “Absolute DNA transfection efficiency” value is reported as 24.8%.
Take `CCCCCCCCCCCCSc1nc(NCCCN(C)C)nc(SCCCCCCCC)n1` [S8S12 D6]: the “Absolute DNA transfection efficiency” value is recorded as 12.6%.
Regarding `CCCCCCCCCCCCSc1nc(NCCN(CC)CC)nc(SCCCCCCCC)n1` [S8S12 D7], the “Absolute DNA transfection efficiency” value came out at 9.3%.
`CCCCCCCCCCCCSc1nc(NCCCN2CCOCC2)nc(SCCCCCCCC)n1` [S8S12 D8]: the “Absolute DNA transfection efficiency” value came to 34.4%.
The figure for `CCCCCCCCCCCCSc1nc(NCCCN2CCN(C)CC2)nc(SCCCCCCCC)n1` [S8S12 D9] is 3.5%.
As for `CCCCCCCCCCCCSc1nc(NCC2CCN(C)CC2)nc(SCCCCCCCC)n1` [S8S12 D10], the “Absolute DNA transfection efficiency” value is recorded as 23.5%.
Consider `CCCCCCCCCCCCN(CCCCCCCCCCCC)c1nc(NCCN(C)C)nc(SCCCCCCCC)n1` [S8^2N12 D1], for which the “Absolute DNA transfection efficiency” value was found to be 0.0%.
The result for `CCCCCCCCCCCCN(CCCCCCCCCCCC)c1nc(NCCN2CCOCC2)nc(SCCCCCCCC)n1` [S8^2N12 D2] reads 0.0%.
Consider `CCCCCCCCCCCCN(CCCCCCCCCCCC)c1nc(NCCN2CCCC2)nc(SCCCCCCCC)n1` [S8^2N12 D3], for which the “Absolute DNA transfection efficiency” value turned out to be 0.1%.
As for `CCCCCCCCCCCCN(CCCCCCCCCCCC)c1nc(NCCN2CCCCC2)nc(SCCCCCCCC)n1` [S8^2N12 D4], the “Absolute DNA transfection efficiency” value stood at 0.0%.
As for `CCCCCCCCCCCCN(CCCCCCCCCCCC)c1nc(NCCN2CCN(C)CC2)nc(SCCCCCCCC)n1` [S8^2N12 D5], the “Absolute DNA transfection efficiency” value was 0.8%.
Consider `CCCCCCCCCCCCN(CCCCCCCCCCCC)c1nc(NCCCN(C)C)nc(SCCCCCCCC)n1` [S8^2N12 D6], for which the “Absolute DNA transfection efficiency” value is 0.5%.
The figure for `CCCCCCCCCCCCN(CCCCCCCCCCCC)c1nc(NCCN(CC)CC)nc(SCCCCCCCC)n1` [S8^2N12 D7] is 0.1%; for `CCCCCCCCCCCCN(CCCCCCCCCCCC)c1nc(NCCCN2CCOCC2)nc(SCCCCCCCC)n1` [S8^2N12 D8] it is 0.0%.
`CCCCCCCCCCCCN(CCCCCCCCCCCC)c1nc(NCCCN2CCN(C)CC2)nc(SCCCCCCCC)n1` [S8^2N12 D9]: the “Absolute DNA transfection efficiency” value was determined as 0.7%.
`CCCCCCCCCCCCN(CCCCCCCCCCCC)c1nc(NCC2CCN(C)CC2)nc(SCCCCCCCC)n1` [S8^2N12 D10]: the “Absolute DNA transfection efficiency” value is 0.8%.
As for `CCCCCCCCCSc1nc(NCCCCCC)nc(NCCN(C)C)n1` [S9N6 D1], the “Absolute DNA transfection efficiency” value was determined as 16.1%.
Turning to `CCCCCCCCCSc1nc(NCCCCCC)nc(NCCN2CCOCC2)n1` [S9N6 D2], the “Absolute DNA transfection efficiency” value is recorded as 2.1%.
The figure for `CCCCCCCCCSc1nc(NCCCCCC)nc(NCCN2CCCC2)n1` [S9N6 D3] is 27.0%; for `CCCCCCCCCSc1nc(NCCCCCC)nc(NCCN2CCCCC2)n1` [S9N6 D4] it is 20.7%; for `CCCCCCCCCSc1nc(NCCCCCC)nc(NCCN2CCN(C)CC2)n1` [S9N6 D5] it is 22.4%.
The result for `CCCCCCCCCSc1nc(NCCCCCC)nc(NCCCN(C)C)n1` [S9N6 D6] reads 8.8%.
Turning to `CCCCCCCCCSc1nc(NCCCCCC)nc(NCCN(CC)CC)n1` [S9N6 D7], the “Absolute DNA transfection efficiency” value is 9.8%.
The figure for `CCCCCCCCCSc1nc(NCCCCCC)nc(NCCCN2CCOCC2)n1` [S9N6 D8] is 7.8%.
On to `CCCCCCCCCSc1nc(NCCCCCC)nc(NCCCN2CCN(C)CC2)n1` [S9N6 D9], for which the “Absolute DNA transfection efficiency” value is recorded as 11.0%.
`CCCCCCCCCSc1nc(NCCCCCC)nc(NCC2CCN(C)CC2)n1` [S9N6 D10]: the “Absolute DNA transfection efficiency” value is listed as 9.7%.
As to `CCCCCCCCCSc1nc(NCCCCCCC)nc(NCCN(C)C)n1` [S9N7 D1], the “Absolute DNA transfection efficiency” value was determined as 36.0%.
For the compound `CCCCCCCCCSc1nc(NCCCCCCC)nc(NCCN2CCOCC2)n1` [S9N7 D2], the “Absolute DNA transfection efficiency” value was determined as 4.4%.
As to `CCCCCCCCCSc1nc(NCCCCCCC)nc(NCCN2CCCC2)n1` [S9N7 D3], the “Absolute DNA transfection efficiency” value is given as 27.3%.
The figure for `CCCCCCCCCSc1nc(NCCCCCCC)nc(NCCN2CCCCC2)n1` [S9N7 D4] is 21.9%.
The result for `CCCCCCCCCSc1nc(NCCCCCCC)nc(NCCN2CCN(C)CC2)n1` [S9N7 D5] reads 18.3%.
For `CCCCCCCCCSc1nc(NCCCCCCC)nc(NCCCN(C)C)n1` [S9N7 D6], the “Absolute DNA transfection efficiency” value is 12.4%.
The figure for `CCCCCCCCCSc1nc(NCCCCCCC)nc(NCCN(CC)CC)n1` [S9N7 D7] is 15.2%; for `CCCCCCCCCSc1nc(NCCCCCCC)nc(NCCCN2CCOCC2)n1` [S9N7 D8] it is 6.1%; for `CCCCCCCCCSc1nc(NCCCCCCC)nc(NCCCN2CCN(C)CC2)n1` [S9N7 D9] it is 12.1%.
The result for `CCCCCCCCCSc1nc(NCCCCCCC)nc(NCC2CCN(C)CC2)n1` [S9N7 D10] reads 9.3%; that for `CCCCCCCCCSc1nc(NCCCCCCCC)nc(NCCN(C)C)n1` [S9N8 D1], 37.3%.
The figure for `CCCCCCCCCSc1nc(NCCCCCCCC)nc(NCCN2CCOCC2)n1` [S9N8 D2] is 13.9%; for `CCCCCCCCCSc1nc(NCCCCCCCC)nc(NCCN2CCCC2)n1` [S9N8 D3] it is 37.6%.
On to `CCCCCCCCCSc1nc(NCCCCCCCC)nc(NCCN2CCCCC2)n1` [S9N8 D4], for which the “Absolute DNA transfection efficiency” value is given as 27.3%.
The result for `CCCCCCCCCSc1nc(NCCCCCCCC)nc(NCCN2CCN(C)CC2)n1` [S9N8 D5] reads 30.3%; that for `CCCCCCCCCSc1nc(NCCCCCCCC)nc(NCCCN(C)C)n1` [S9N8 D6], 17.9%; that for `CCCCCCCCCSc1nc(NCCCCCCCC)nc(NCCN(CC)CC)n1` [S9N8 D7], 15.7%.
With `CCCCCCCCCSc1nc(NCCCCCCCC)nc(NCCCN2CCOCC2)n1` [S9N8 D8], the “Absolute DNA transfection efficiency” value is on record as 12.2%.
On to `CCCCCCCCCSc1nc(NCCCCCCCC)nc(NCCCN2CCN(C)CC2)n1` [S9N8 D9], for which the “Absolute DNA transfection efficiency” value was determined as 25.7%.
For `CCCCCCCCCSc1nc(NCCCCCCCC)nc(NCC2CCN(C)CC2)n1` [S9N8 D10], the “Absolute DNA transfection efficiency” value is 17.2%.
The result for `CCCCCCCCCNc1nc(NCCN(C)C)nc(SCCCCCCCCC)n1` [S9N9 D1] reads 35.3%; that for `CCCCCCCCCNc1nc(NCCN2CCOCC2)nc(SCCCCCCCCC)n1` [S9N9 D2], 24.0%.
The result for `CCCCCCCCCNc1nc(NCCN2CCCC2)nc(SCCCCCCCCC)n1` [S9N9 D3] reads 54.9%.
For the compound `CCCCCCCCCNc1nc(NCCN2CCCCC2)nc(SCCCCCCCCC)n1` [S9N9 D4], the “Absolute DNA transfection efficiency” value was determined as 18.0%.
With `CCCCCCCCCNc1nc(NCCN2CCN(C)CC2)nc(SCCCCCCCCC)n1` [S9N9 D5], the “Absolute DNA transfection efficiency” value was 47.4%.
The figure for `CCCCCCCCCNc1nc(NCCCN(C)C)nc(SCCCCCCCCC)n1` [S9N9 D6] is 60.6%; for `CCCCCCCCCNc1nc(NCCN(CC)CC)nc(SCCCCCCCCC)n1` [S9N9 D7] it is 49.8%; for `CCCCCCCCCNc1nc(NCCCN2CCOCC2)nc(SCCCCCCCCC)n1` [S9N9 D8] it is 14.8%.
The result for `CCCCCCCCCNc1nc(NCCCN2CCN(C)CC2)nc(SCCCCCCCCC)n1` [S9N9 D9] reads 50.7%.
